Consider 13 molecules from patent publication US9458463B2, “Method for treatment of diabetes by a small molecule inhibitor for GRK5” (MAX-PLANCK-GESELLSCHAFT ZUR FÖRDERUNG DER WISSENSCHAFTEN …, priority 2010, dated 2016).

The term pIC50 denotes the IC50 on a negative log10 scale, so that one unit is a factor of ten.

One test concerns beta TC6 cells. The test is described as follows: Cell viability assay (CellTiter-Glo / automated cell number) in beta TC6. In kind it is cell-based. The note with it: Mus musculus, read-out: Inhibition of cell viability IC50. From the text:
(§1) Luminescent cell viability assay. For the detection of cell viability, the CellTiter-Glo® Luminescent Cell Viability Assay was used. This test is based on a luciferase reaction to measure the amount of ATP in cells. This correlates directly with the number of cells and their viability because cells lose the ability to synthesize ATP directly after e.g. loss of membrane integrity or a cytotoxic event. The protocol was adapted to 24 well plates and to the different culture conditions resulting in a standardized protocol which is described below. Cell lysis, inhibition of endogenous ATPases and detection of ATP was performed by adding the CellTiter-Glo® Reagent to the culture wells. Per well, 100 μl reagent were mixed with the same volume of proper Medium. Lysing of the cells took place by 10 min incubation at RT and moderate shaking. Three times 50 μl cell lysate was transferred into a white 96 well plate to eliminate stray light, and the bioluminescence was measured.
(§2) In a 96 well dish 10000 cells per well (100 μl) were seed and treated for 72 h. At the end of the treatment, cells were fixed with 4% paraformaldehyde in PBS for 15 minutes, permeabilized with 0.1% triton-X 100 in PBS for 15 minutes and stained with Hoechst 33342 (20 μg/ml in PBS; dilute from 20 mg/ml stock) directly to cells in 100 μl medium in PBS for 30 minutes at 37° C. Stained cells were imaged with a Cellomics ArrayScan VT I automated microscope. Images were analyzed with vHCS Scan Target Activation software v5.1.2 to identify apoptotic cells. Six fields per well of a 96 well plate we re-imaged at 10× magnification. First, cells were identified by their nuclei staining in channel 1 of Cellomics and their amount. Staining intensity was plotted and compared between NT controls and compound treated cells. Finally, data was obtained using vHCS View software v 5.1.2 and the numbers of cells present in the 96 well were identified as “Valid Object Count” whereas the percentage of infection was determined as “% selected”. IC50 values have been calculated accordingly.
(In general: Cellular ATP, detected with luciferase, serves as a proxy for viable cell number.)

For the next test, the system named is C2C12 cells. The test is described as follows: Cell viability assay (CellTiter-Glo / automated cell number) in C2C12. The format is cell-based. The note with it: Mus musculus, read-out: Inhibition of cell viability IC50.
From the text: as §1, §2

The test system of a further test is HepG2 cells. The test is described as follows: Cell viability assay (CellTiter-Glo / automated cell number) in HepG2. The note with it: Homo sapiens, read-out: Inhibition of cell viability IC50. The format is cell-based.
From the text: as §1, §2

The test system of a further test is 3T3-L1 cells. The test is described as follows: Cell viability assay (CellTiter-Glo / automated cell number) in 3T3-L1. In kind it is cell-based. The note with it: Mus musculus, read-out: Inhibition of cell viability IC50.
From the text: as §1, §2

The test system of test [1] is beta-TC6 insulinoma cells. The test is described as follows: Insulin release by beta-TC6 cells, rat/mouse insulin ELISA, high glucose. In kind it is cell-based. The note with it: for activation at 5 µM: Mus musculus, group II, 2 h, high glucose (4.5 g/L), % increase in regard to DMSO control (set at 0%); for activation at 5 µM / Insulin release by beta-TC6 cells compared with positive control Sunitinib: 5 μM; for Insulin release by beta-TC6 cells compared with positive control Sunitinib: high glucose. The procedure: (§3) Release of insulin was detected using a rat/mouse insulin ELISA.
After incubation, the supernatant of the beta-TC6 insulinoma cells was diluted 1:20. The insulin release was measured with rat/mouse insulin ELISA (Merck Millipore Darmstadt, Cat. # EZRMI-13K) by following the manufacture protocol. The enzyme activity of the horseradish peroxidase of the immobilized biotinylated antibodies was monitored spectrophotometrically by the increased absorbency at 490 nm, and corrected by the absorbency at 610 nm.
as §3
The effect on the insulin release of each kinase depletion was monitored by using a rat/mouse insulin ELISA.
For the validation of the negative modulating kinases SCYL1, GRK5, and ADCK1, the target genes were depleted using four different siRNA-sequences each (FIG. 2A-D). The gene-depletion was measured via mRNA-levels after 72 hours while the insulin release was measured using a rat/mouse insulin ELISA after two hours incubation.

The next test deals with T1, full length GRK5 (Homo sapiens, UniProt P34947).
T1 construct: 6/2 fold concentrated full length GRK5 (Millipore, #14-714) in reaction buffer; purchased Millipore 14-714
T1 sequence (P34947 whole entry): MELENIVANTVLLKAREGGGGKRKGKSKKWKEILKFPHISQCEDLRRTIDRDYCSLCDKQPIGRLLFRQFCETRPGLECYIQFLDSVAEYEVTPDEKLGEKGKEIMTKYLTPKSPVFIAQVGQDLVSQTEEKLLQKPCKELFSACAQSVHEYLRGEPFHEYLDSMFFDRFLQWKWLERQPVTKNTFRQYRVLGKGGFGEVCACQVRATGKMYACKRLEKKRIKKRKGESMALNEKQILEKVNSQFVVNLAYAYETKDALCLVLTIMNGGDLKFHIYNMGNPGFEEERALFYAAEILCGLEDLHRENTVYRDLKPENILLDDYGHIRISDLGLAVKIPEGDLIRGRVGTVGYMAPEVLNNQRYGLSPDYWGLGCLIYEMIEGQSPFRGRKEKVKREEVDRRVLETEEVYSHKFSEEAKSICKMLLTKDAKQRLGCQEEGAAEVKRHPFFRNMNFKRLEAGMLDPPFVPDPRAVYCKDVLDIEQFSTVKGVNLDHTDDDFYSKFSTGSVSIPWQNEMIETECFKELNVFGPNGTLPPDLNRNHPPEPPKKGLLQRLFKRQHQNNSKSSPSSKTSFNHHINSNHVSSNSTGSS
The test is described as follows: GRK5 kinase activity assay, ADP Glo Kinase Assay technology (Promega). The format is biochemical. The note with it: group II; ADP Glo Kinase Assay (Table 9-B). On the procedure: The maximal compound assay concentration was set to 100 μM, representing the compound assay concentration used in the primary screen.
Increasing concentrations of GRK5 are incubated together with 100 μM ATP in the absence and presence of 10 μM casein in a reaction buffer. Within this incubation non-phosphorylated casein is converted into phosphorylated casein and ATP is converted into ADP. Thereafter nonconverted ATP is digested into AMP by addition of the ADP-Glo™ Reagent. Subsequently the ADP that is produced by GRK5 activity is phosphorylated back to ATP by addition of Promega Kinase Detection Reagent. These ATP levels serve as measure for the GRK5 activity and are quantified by a luciferase/luciferin reaction.
For GRK5 kinase activity assay, the following protocol was used:
The reaction buffer used was composed of: 20 mM MES pH 6.0, 1 mM DTT, 10 mM MgCl2, 0.01% Tween20 and the reaction volume was 6 μL.
Firstly 4 μL 6/4 fold concentrated substrate and 6/4 fold concentrated ATP in 1 fold concentrated reaction buffer are added to each well of the assay plate. Subsequently 67 nL […] concentrated test compound in 100% DMSO are added to each well except to C− and C+ wells using pin tool. Then 67 nL 100% DMSO are pipetted to C− (no kinase, no compound) and C+ (no compound) wells using pin-tool and 2 μL reaction buffer are added to C− wells. […] After incubation for 120 min. at room temperature 6 μL ADP-Glo™ Reagent (ADP Glo™ Kinase Assay Kit: Promega, V9101) are added to each well to stop the kinase reaction and deplete the unconsumed ATP. After a second incubation for 40 min. at room temperature 12 μL of Kinase Detection Reagent are added to convert ADP to ATP and start luciferase/luciferin reaction for detection of ATP. […] Finally, after incubation for 40 min at room temperature the luminescence intensity was measured.
The activity of the compounds was classified according to IC50 for binding sites of Grk5 into the following ranges:
8800 Customer compounds were screened for their ability to inhibit the enzymatic activity of GRK5. Screening was performed using the ADP Glo™ Kinase Assay technology (Promega). The small molecular weight compounds were delivered at 10 mM stock concentration and were tested at a final assay concentration of 100 μM.
IC50 values were determined in triplicates at 12 concentrations with a dilution factor of three. Triplicates were measured on three different assay plates. The maximal compound assay concentration was set to 100 μM representing the compound assay concentration used in the primary screen. A larger maximal compound assay concentration could not be achieved since the maximal compound concentration on the compound plates was 10 mM (>1% DMSO concentration in the assay).

Molecules are shown by their SMILES. pIC50: −log10 of the molar value.

Turning to `CCC(NC(=O)c1ccc2c(c1)/C(=C/c1[nH]c(C)c(C(=O)NCCN3CCCC3)c1C)C(=O)N2)c1ccc(F)c(F)c1` (stereo not drawn) [II.10, (3Z)-N-[1-(3,4-difluorophenyl)propyl]-3-({3,5-dimethyl-4-[(2-pyrrolidin-1-ylethyl)carbamoyl]-1H-pyrrol-2-yl}methylene)-2-oxoindoline-5-carboxamide], the pIC50 in the test on beta TC6 cells is 6.17; in the test with C2C12 cells, 5.49; in the test with HepG2 cells, 6.20; in the test on 3T3-L1 cells it was less than 5.00; against full length GRK5, 6.00 to 7.00. For the same molecule, the activation at 5 µM in test [1] (Beta-TC6, 2 h) was determined as 164%.

For the molecule `CCC(NC(=O)c1ccc2c(c1)/C(=C/c1[nH]c(C)c(C(=O)NCCN3CCCC3)c1C)C(=O)N2)c1cccc(Cl)c1` (stereo not drawn) [II.11, (3Z)-N-[1-(3-chlorophenyl)propyl]-3-({3,5-dimethyl-4-[(2-pyrrolidin-1-ylethyl)carbamoyl]-1H-pyrrol-2-yl}methylene)-2-oxoindoline-5-carboxamide], the pIC50 was 6.02 in the test with beta TC6 cells; 5.47 in the test on C2C12 cells; 6.10 in the test with HepG2 cells; less than 5.00 in the test on 3T3-L1 cells; 6.00 to 7.00 at full length GRK5. Also, the activation at 5 µM in test [1] (Beta-TC6, 2 h) worked out at 96%.

Regarding `Cc1ccc([C@@H](C)NC(=O)c2ccc3c(c2)/C(=C/c2[nH]c(C)c(C(=O)N4CCN(C)CC4)c2C)C(=O)N3)cc1` [II.32, (3Z)-3-({3,5-dimethyl-4-[(4-methylpiperazin-1-yl)carbonyl]-1H-pyrrol-2-yl}methylene)-N-[(1R)-1-(4-methylphenyl)ethyl]-2-oxoindoline-5-carboxamide], the negative logarithm of the IC50 (pIC50) in the test on beta TC6 cells is 5.80; in the test on C2C12 cells, 5.37; in the test with HepG2 cells, 5.91; in the test on 3T3-L1 cells, 6.15; against full length GRK5, 5.70 to 6.00. Besides, the activation at 5 µM in test [1] (Beta-TC6, 2 h) worked out at 143%.

The molecule `CCC(NC(=O)c1ccc2c(c1)/C(=C/c1[nH]c(C)c(CCC(=O)O)c1C)C(=O)N2)c1ccc(Cl)cc1` (stereo not drawn) [II.132, (3Z)-3-(5-{5-[1-(4-chloro-phenyl)-propylcarbamoyl]-2-oxo-1,2-dihydro-indol-3-ylidenemethyl}-2,4-dimethyl-1H-pyrrol-3-yl)-propionic acid] came in with an activation at 5 µM in test [1] (Beta-TC6, 2 h) of 117%. Moreover, the pIC50 at full length GRK5 was 6.00 to 7.00.

For `CCC(NC(=O)c1ccc2c(c1)/C(=C/c1[nH]c(C)c(CCC(=O)O)c1C)C(=O)N2)c1ccc(F)c(F)c1` (stereo not drawn) [II.133, (3Z)-3-(5-{5-[1-(3,4-difluoro-phenyl)-propylcarbamoyl]-2-oxo-1,2-dihydro-indol-3-ylidenemethyl}-2,4-dimethyl-1H-pyrrol-3-yl)-propionic acid], the activation at 5 µM in test [1] (Beta-TC6, 2 h) turned out to be 131%. This molecule had a negative-log IC50 (pIC50) on full length GRK5 of 6.00 to 7.00.

With `CCC(NC(=O)c1ccc2c(c1)/C(=C/c1[nH]c(C)c(CCC(=O)NCCN(CC)CC)c1C)C(=O)N2)c1cccc(Cl)c1` (stereo not drawn) [II.135, (3Z)-3-{4-[2-(2-diethylamino-ethylcarbamoyl)-ethyl]-3,5-dimethyl-1H-pyrrol-2-ylmethyiene}-2-oxo-2,3-dihydro-1H-indole-5-carboxylic acid [1-(3-chloro-phenyl)-propyl]-amide], the pIC50 with beta TC6 cells is 5.81; in the test with C2C12 cells, less than 5.00; in the test with HepG2 cells it was 5.73; with 3T3-L1 cells, 5.87; at full length GRK5, more than 7.00.

`CCOC(=O)[C@H](C)NC(=O)c1c(C)[nH]c(/C=C2\C(=O)Nc3ccc(C(=O)O)cc32)c1C` [II.136]: the pIC50 was less than 5.00 with beta TC6 cells; less than 5.00 with C2C12 cells; less than 5.00 in the test with HepG2 cells; 5.57 in the test on 3T3-L1 cells; 6.00 to 7.00 at full length GRK5.

Turning to `Cc1[nH]c(/C=C2\C(=O)Nc3ccc(C(=O)O)cc32)c(C)c1C(=O)O` [II.139, (3Z)-3-(4-carboxy-3,5-dimethyl-1H-pyrrol-2-ylmethylene)-2-oxo-2,3-dihydro-1H-indole-5-carboxylic acid], the negative-log IC50 (pIC50) in the test with beta TC6 cells was less than 5.00; with C2C12 cells, less than 5.00; in the test with HepG2 cells, less than 5.00; in the test with 3T3-L1 cells it was 5.87; at full length GRK5, 5.70 to 6.00.

As for `COC(=O)[C@@H](Cc1ccccc1)NC(=O)c1c(C)[nH]c(/C=C2\C(=O)Nc3ccc(C(=O)O)cc32)c1C` [II.140, (3Z)-3-[4-((1R)-1-methoxycarbonyl-2-phenyl-ethylcarbamoyl)-3,5-dimethyl-1H-pyrrol-2-ylmethylene]-2-oxo-2,3-dihydro-1H-indole-5-carboxylic acid], the negative logarithm of the IC50 (pIC50) in the test with beta TC6 cells is less than 5.00; in the test with C2C12 cells it was less than 5.00; with HepG2 cells, less than 5.00; with 3T3-L1 cells, 5.40; against full length GRK5, 5.70 to 6.00.

Consider `COC(=O)[C@H](COC(C)(C)C)NC(=O)c1c(C)[nH]c(/C=C2\C(=O)Nc3ccc(C(=O)O)cc32)c1C` [II.141, (3Z)-3-[4-(2-tert-butoxy-(1S)-1-methoxycarbonyl-ethylcarbamoyl)-3,5-dimethyl-1H-pyrrol-2-ylmethylene]-2-oxo-2,3-dihydro-1H-indole-5-carboxylic acid], for which the negative-log IC50 (pIC50) in the test with beta TC6 cells was less than 5.00; in the test on C2C12 cells it was less than 5.00; in the test on HepG2 cells, less than 5.00; in the test on 3T3-L1 cells it was 5.47; against full length GRK5, 5.00 to 5.70.

`CCN(CC)CCNC(=O)c1c(C)[nH]c(/C=C2\C(=O)Nc3ccc(F)cc32)c1C` [Sunitinib, reference compound] registered an activation at 5 µM in test [1] (Beta-TC6) of 80%. For the same molecule, in test [1] (positive control of the siRNA validation, Sunitinib 5 μM, beta-TC6), the “Increase in insulin release” value came to 76.52±13%.

With `NC(=O)c1ccc(Nc2cc3[nH]c(-c4cccc(F)c4)cc3cn2)cc1` [compound 6, 4-[[2-(3-fluorophenyl)-1H-pyrrolo[3,2-c]pyridin-6-yl]amino]benzamide], in test [1], the “Insulin release by beta-TC6 cells compared with positive control Sunitinib” value is recorded as “level similar to Sunitinib”.

On to `Cn1c(-c2cccnc2)cc2c(Nc3cccc(C(F)(F)F)c3)nccc21` [compound 243, 1-methyl-2-(3-pyridyl)-N-[3-(trifluoromethyl)phenyl]pyrrolo[3,2-c]pyridin-4-amine], for which, in test [1], the “Insulin release by beta-TC6 cells compared with positive control Sunitinib” value is “better effect on the insulin release by beta-TC6 cells than the positive control Sunitinib”.
